For series [1] the following is noted: cited: Deng et al., Science 2017; cited from earlier work.
The subject of series [2] is C57BL/6 male mice treated with bleomycin (pulmonary fibrosis). Kind of series: Bleomycin/pulmonary fibrosis study, lung histology (Masson's trichrome, Ashcroft fibrosis grading). It is filed as in vivo. The conditions noted are these: bleomycin OA day 0, 60 mg/kg IP BID days 7 through 20; for statistical significance of the decrease in fibrosis vs dosing vehicle: SPSS version 20. The text has this:
FIG. 2. Figure is a chart providing histology scores for pulmonary tissue from mice treated with bleomycin (a well characterized lung toxin) and either dosing vehicle, UR, or TK-112690.
Thirty-three C57BL/6 male mice, 10-14 weeks at study initiation, were acclimatized for least 3 days. The mouse has been selected as is referenced in the literature as a representative species of choice for this experimental animal model. During acclimation and throughout the entire study duration, animals were housed within a limited access rodent facility and kept in groups of a maximum of 4 mice per cage. Mice were housed in polypropylene cages with solid bottoms and wood shavings or corn Cobb as bedding material. Animals were provided ad libitum with a commercial rodent diet and had free access to drinking water that is supplied to each cage via polyethylene bottles. The automatically controlled environmental conditions was set to maintain temperature at 20-26° C. with a relative humidity (RH) of 30-70%, a 12:12 hour light: dark cycle, and 10-15 air changes/hour in the study room. Animals were given a unique animal identification tail mark as a means of identification. This number also appeared on a cage card, which is visible on the front of each cage. The cage card also contains the study and group numbers, route of administration, gender, study director and arrival date.
Animals were randomly assigned to cages on arrival. Animals were assigned to treatment groups prior to treatment initiation. At study termination, surviving animals were weighed prior to euthanasia. Euthanasia was performed via anesthesia overdose and exsanguination.
The table below lists the experimental group(s) comprising the study.
Disease Induction. 75 uL of Bleomycin (section 4.5.) was administered on day 0 via oropharyngeal aspiration (O.A.). The mice were anesthetized via isoflurane/oxygen and suspended by their cranial incisors on a thin wire from an angled stand. The tongue was be gently held from the mouth using blunt forceps to visualize the base of the tongue and the pharynx. Bleomycin/saline suspension was pipetted onto posterior pharynx. Nostrils will be held gently closed. Respiration was monitored to ensure the suspension is fully aspirated.
Treatment. Groups 3 and 4 were treated via intraperitoneal (IP) injection at a dosing volume of 10 ml/kg twice daily, 6-8 hours between doses, from days 7 through 20.
Observations and Examinations. […]
Histology. […] Disease severity and collagen levels were assessed by the Ashcroft fibrosis grading system.
The resulting data were analyzed by SPSS, version 20.

The nature of series [3]: Elimination t1/2 of Compound 1 in mice. Conditions: mouse, in vivo.
For another series, the system named is plasma UR. Kind of series: Plasma UR concentration versus plasma Compound 1 concentration after continuous infusion via sc implanted osmotic pumps. The conditions noted are these: BDF-1 male mice; for effect on plasma UR: constant-rate sc infusion 667, 833 or 3000 mg/kg/day, plasma at 72 h or 24 h. In kind it is in vivo. The method, then: Solutions of Compound I were prepared at a concentration of 500 mg/mL in sterile PBS. Osmotic pumps (ALZET® micro-osmotic pump 2001D and 1003D, Alza Co) were loaded with 200 μL (2001D osmotic pump) and/or 100 μL (1003D osmotic pump) of TK-112690 solution.
BDF-1 male mice (n=6) were treated with a constant-rate infusion of 667, 833 or 3000 mg/kg/day doses of Compound I delivered via subcutaneously implanted osmotic pumps. Animals were anesthetized with 100 mg/kg ketamine prior to pump implantation. Surgical scissors were used to make an approximately 1 cm incision on the dorsal surface near the shoulder blade of animals. A hemostat was used to carve out a subcutaneous tunnel toward the anterior end of animal. Osmotic pumps were placed inside the subcutaneous tunnel. Incision was sealed with wound clips.
Blood collections were performed on animals anesthetized with ketamine (ip 100 mg/kg). Blood samples from animals treated with a constant-rate infusion of TK-112690 were collected at 72 hours for 667 mg/kg/day and 833 mg/kg/day and 24 hours for 3000 mg/kg/day after pump implantation. Whole blood (˜0.8 mL) was drawn through the retro-orbital sinus using a heparin coated micro-hematocrit tube and collected into an EDTA microtainer tube. Blood samples were transferred into fresh 1.5 mL microcentrifuge tubes and centrifuged for 10 minutes at 14,000×g using an Eppendorf Minispin Plus stored in a 4° C. refrigerator. Exactly 0.4 mL of plasma was transferred into fresh microcentrifuge tubes containing 2 μL of 10 mM 5-FU and vortexed at highest setting for approximately 5 seconds. The final 50 μM concentration of 5-FU served as an internal standard. Animals were sacrificed by cervical dislocation and properly disposed.
Blood samples from animals treated with a constant-rate infusion of compound I were collected at 72 hours for 667 mg/kg/day and 833 mg/kg/day and 24 hours for 3000 mg/kg/day after pump implantation. […]
A solid-phase extraction (SPE) of analytes (UR, Compound I and 5-FU) from plasma was conducted before HPLC analysis. […] Samples were transferred into fresh HPLC vials and analyzed. […]

The values below come from US12194043B2, “Uridine phosphorylase inhibitors to treat or prevent pulmonary disease” (Tosk, Inc., priority 2020, dated 2025).

Each structure is given as a SMILES string. “Also recorded” adds a separate entry of the source.

Turning to `O=c1ccn([C@@H]2O[C@H](CO)[C@@H](O)[C@H]2O)c(=O)[nH]1` [UR, uridine], in series [1], the “elimination t1/2” value is given as “only a few minutes”. Besides, in series [2], the “less fibrosis (histology score) than mice treated with the dosing vehicle” value is given as 7% and the “statistical significance of the decrease in fibrosis vs dosing vehicle” value is given as “not statistically significant”.

`Cc1cn2c(nc1=O)O[C@H]1[C@H](O)[C@@H](CO)O[C@H]12` [Compound 1]: in series [3], the half-life (commonly the time in which the quantity being followed falls by half) lay in the range of 1 to 2 h. Further, the “effect on plasma UR” value with plasma UR is reported as “elevate plasma UR in a linear fashion”. Moreover, the “effect on plasma UR” value with plasma UR (listed as TK-112690) is reported as “elevate plasma UR in a linear fashion; also recorded: associated with higher levels of UR”. Besides, the “slope of regression line, plasma UR concentration vs plasma Compound 1 concentration” value with plasma UR (continuous infusion of various amounts) is listed as 0.010. In series [2], the “less fibrosis (histology score) than mice treated with the dosing vehicle” value was 30% and the “statistical significance of the decrease in fibrosis vs dosing vehicle” value is reported as “statistically significant”.
